Assay results reported in paper PMC5839409, “Targeting intracellular B2 receptors using novel cell-penetrating antagonists to arrest growth and induce apoptosis in human triple-negative breast cancer” (Oncotarget, 2018).
Square brackets hold non-standard residues; d marks the D form. Peptide text beside a SMILES is read from it.

Key:
[1] = biological target: T1, B2R endogenously expressed in the human de-endothelized umbilical veins (Homo sapiens, UniProt P30411); experiment: Functional bioassay on isolated human de-endothelized umbilical veins (hUV); conditions: read-out: biological activity; agonists, isometric contraction of human vessels
T1 construct: B2R endogenously expressed in the human de-endothelized umbilical veins (hUV); from tissue; host or cells: human umbilical vein, de-endothelized
T1 sequence (P30411 1-391): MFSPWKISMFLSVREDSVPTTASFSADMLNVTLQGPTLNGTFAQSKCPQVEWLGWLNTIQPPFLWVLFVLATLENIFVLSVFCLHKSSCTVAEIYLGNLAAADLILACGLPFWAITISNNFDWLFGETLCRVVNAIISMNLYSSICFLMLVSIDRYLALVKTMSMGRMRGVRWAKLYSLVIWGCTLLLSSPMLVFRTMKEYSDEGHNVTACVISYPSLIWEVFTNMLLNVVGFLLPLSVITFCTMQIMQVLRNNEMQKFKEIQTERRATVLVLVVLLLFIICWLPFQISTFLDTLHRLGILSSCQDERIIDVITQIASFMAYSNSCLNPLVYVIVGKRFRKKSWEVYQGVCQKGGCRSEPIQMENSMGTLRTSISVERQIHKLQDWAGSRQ
Description: For testing the pharmacological activities of agonists, complete concentration-contractile response curves to agents were done at the B2R endogenously expressed in the human de-endothelized umbilical veins (hUV), as previously described. EC50 values (or potencies) of the agonists were calculated from the obtained concentration-response curves. […] The collection of umbilical cords for the bioassays was approved by the local ethical committee, and maternal consent was obtained in every case.

MDA-MB-231 cells = experiment: Anchorage-dependent clonogenic assay; type: cell-based, human; conditions: 10-14 days
Description: MDA-MB-231 cells were plated at 200 cells/well in a six-well dish in 2 ml DMEM medium containing 10% FBS. […] After 10 to 14 days, colonies were fixed and stained with 0.5% methylene blue in 50% ethanol. Excess of staining solution was removed carefully with tap water and the plates were dried overnight. Colony counting and densitometric analyses (to measure total colony numbers and surface areas) were performed using the Image Pro Plus 5.1 software.

human B2R = biological target: T2, human B2R (Homo sapiens, UniProt P30411); experiment: Radioligand competition binding on live adherent HEK-293T cells transiently transfected with hB2R; conditions: read-out: binding affinity; agonists, HEK-293T cells transfected with B2R
T2 construct: expressed in transfected cells; host or cells: HEK-293T
T2 sequence (P30411 1-391): T1 sequence (P30411 1-391)

## N=C(N)NCCC[C@H](NC(=O)[C@H](Cc1ccccc1)NC(=O)[C@@H]1CCCN1C(=O)[C@H](CO)NC(=O)[C@H](Cc1ccccc1)NC(=O)CNC(=O)[C@@H]1CCCN1C(=O)[C@@H]1CCCN1C(=O)[C@H](CCCNC(=N)N)NC(=O)CNC(=O)CNC(=O)CNC(=O)[C@@H](CCCNC(=N)N)NC(=O)[C@@H](CCCNC(=N)N)NC(=O)[C@@H](CCCNC(=N)N)NC(=O)[C@@H](CCC(N)=O)NC(=O)[C@@H](CCCNC(=N)N)NC(=O)[C@@H](CCCNC(=N)N)NC(=O)[C@@H](CCCCN)NC(=O)[C@@H](CCCCN)NC(=O)[C@@H](CCCNC(=N)N)NC(=O)CN)C(=O)O [DTat-BK] (H-G[dR][dK][dK][dR][dR][dQ][dR][dR][dR]GGGRPPGFSPFR-OH; N-terminus and C-terminus assumed)
[1]
  EC50: 350 ± 1 nM
MDA-MB-231 cells
  colony number (agonist effect): did not increase colony number
  colony surface area (agonist effect): increase in colony surface area
Human B2R
  IC50: 110 ± 4 nM
